From US20040141914A1, “Cancerous disease modifying antibodies” (priority 2003, published 2004)

Legend:
OVCAR = system: OVCAR; set-up: key to the marks not given beside the values
MB-231 = system: MB-231; set-up: key to the marks not given beside the values
PC-3 = system: PC-3; set-up: key to the marks not given beside the values
HT-29 = system: HT-29; set-up: key to the marks not given beside the values
[1] = Live/Dead cytotoxicity assay, hybridoma supernatant; details: human
NCI H460 = system: NCI H460; set-up: key to the marks not given beside the values
MCF-7 = system: MCF-7; set-up: key to the marks not given beside the values
MB-468 = system: MB-468; set-up: key to the marks not given beside the values

C[C@@H]1C[C@@H]([C@H](O)CC2CC(=O)NC(=O)C2)C(=O)[C@@H](C)C1 [Cycloheximide]
17%: cytotoxicity at 5 days [1]
+++: cytotoxicity, experiments greater than threshold, OVCAR (OVCAR) | cytotoxicity, experiments greater than threshold, MB-231 (MB-231) | cytotoxicity, experiments greater than threshold, PC-3 (PC-3) | cytotoxicity, experiments greater than threshold, HT-29 (HT-29) | cytotoxicity, experiments greater than threshold, NCI H460 (NCI H460) | cytotoxicity, experiments greater than threshold, MCF-7 (MCF-7) | cytotoxicity, experiments greater than threshold, MB-468 (MB-468)
